Laboratory results as given in ChEMBL document CHEMBL1144315, “Three-dimensional quantitative structure (3-D QSAR) activity relationship studies on imidazolyl and N-pyrrolyl heptenoates as 3-hydroxy-3-methylglutaryl-CoA reductase (HMGR) inhibitors by comparative molecular similarity indices analysis (CoMSIA)” (Bioorg Med Chem Lett, 2005).

The compounds below were run against T1, 3-hydroxy-3-methylglutaryl-coenzyme A reductase (Homo sapiens, UniProt P04035) (assay: Inhibitory concentration against 3-hydroxy-3-methylglutaryl-CoA reductase).
T1 sequence (P04035 whole entry): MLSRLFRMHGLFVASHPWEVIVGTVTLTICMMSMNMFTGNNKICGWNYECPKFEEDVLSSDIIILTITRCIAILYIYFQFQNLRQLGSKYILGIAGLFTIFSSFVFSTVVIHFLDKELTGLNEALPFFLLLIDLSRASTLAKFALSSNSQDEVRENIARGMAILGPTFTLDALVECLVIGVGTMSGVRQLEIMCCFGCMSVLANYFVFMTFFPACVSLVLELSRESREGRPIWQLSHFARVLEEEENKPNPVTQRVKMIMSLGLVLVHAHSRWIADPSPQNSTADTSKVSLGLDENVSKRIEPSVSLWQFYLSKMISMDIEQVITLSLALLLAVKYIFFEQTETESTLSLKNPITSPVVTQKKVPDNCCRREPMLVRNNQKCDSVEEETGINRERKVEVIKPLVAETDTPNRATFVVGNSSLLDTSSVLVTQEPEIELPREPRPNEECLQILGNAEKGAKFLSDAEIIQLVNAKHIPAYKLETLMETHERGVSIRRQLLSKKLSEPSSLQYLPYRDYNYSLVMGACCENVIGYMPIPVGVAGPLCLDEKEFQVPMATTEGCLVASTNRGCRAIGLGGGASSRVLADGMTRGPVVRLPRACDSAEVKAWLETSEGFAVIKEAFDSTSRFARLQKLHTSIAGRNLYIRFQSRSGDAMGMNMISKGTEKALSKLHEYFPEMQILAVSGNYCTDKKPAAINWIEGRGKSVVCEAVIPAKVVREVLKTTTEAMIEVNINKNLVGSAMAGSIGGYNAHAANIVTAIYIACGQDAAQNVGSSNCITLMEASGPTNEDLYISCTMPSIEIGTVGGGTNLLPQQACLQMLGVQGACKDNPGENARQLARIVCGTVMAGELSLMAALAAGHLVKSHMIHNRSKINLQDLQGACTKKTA
For O=C(O)C[C@H](O)C[C@H](O)/C=C/n1c(C(F)(F)F)nc(-c2ccc(F)cc2)c1-c1ccc(F)cc1, the IC50 was 7.89 nM. Compound CC(C)c1cc(-c2ccc(F)cc2)c(-c2cccc(Cl)c2)n1/C=C/[C@@H](O)C[C@@H](O)CC(=O)O has an IC50 of 7.15 nM. CC(C)c1nc(-c2ccc(F)cc2)c(-c2ccc(F)cc2)n1/C=C/[C@@H](O)C[C@@H](O)CC(=O)O was tested, and the IC50 was 9 nM. With CC(C)c1cc(-c2ccncc2)c(-c2ccc(F)cc2)n1/C=C/[C@@H](O)C[C@@H](O)CC(=O)O the IC50 was 8.3 nM. For Cc1cc(C)cc(-c2c(-c3ccc(F)cc3)nc(C(C)C)n2/C=C/[C@@H](O)C[C@@H](O)CC(=O)O)c1, the IC50 was 7.25 nM. Cc1cc(-c2nc(C(C)C)n(/C=C/[C@@H](O)C[C@@H](O)CC(=O)O)c2-c2ccc(F)cc2)cc(C)c1Cl gave an IC50 of 8.7 nM. Compound CC(C)c1nc(-c2ccc(F)cc2)c(-c2ccc(F)cc2)n1/C=C/[C@H](O)C[C@H](O)CC(=O)O has an IC50 of 6.15 nM. CC(C)c1cc(-c2cccc(Br)c2)c(-c2ccc(F)cc2)n1/C=C/[C@@H](O)C[C@@H](O)CC(=O)O was tested, and the IC50 was 9.3 nM. In the case of CC(C)c1nc(-c2ccc(F)cc2)c(-c2cc(Cl)cc(Cl)c2)n1/C=C/[C@@H](O)C[C@@H](O)CC(=O)O, the IC50 is reported as 7.66 nM. CC(C)(C)c1nc(-c2ccc(F)cc2)c(-c2ccc(F)cc2)n1/C=C/[C@@H](O)C[C@@H](O)CC(=O)O showed an IC50 of 8.15 nM. Work on CC(C)c1c(Br)c(-c2ccc(F)cc2)c(-c2ccc(F)cc2)n1/C=C/[C@@H](O)C[C@@H](O)CC(=O)O yielded an IC50 of 9.52 nM. Compound CC[C@H](C)C(=O)O[C@H]1CCC=C2C=C[C@H](C)[C@H](CC[C@@H]3C[C@@H](O)CC(=O)O3)[C@H]21 [MEVASTATIN] has an IC50 of 23 nM. In the case of CNc1cccc(-c2nc(C(C)C)n(/C=C/[C@@H](O)C[C@@H](O)CC(=O)O)c2-c2ccc(F)cc2)c1, the IC50 is reported as 8.52 nM. With COCc1c(C(C)C)nc(C(C)C)c(/C=C/[C@@H](O)C[C@@H](O)CC(=O)O)c1-c1ccc(F)cc1 [CERIVASTATIN] the IC50 was 10 nM. In the case of Cc1nc(-c2ccc(F)cc2)c(-c2ccc(F)cc2)n1/C=C/[C@@H](O)C[C@@H](O)CC(=O)O, the IC50 is reported as under 7 nM. Compound CC(C)c1c(-c2ccc(F)cc2)nc(-c2ccc(F)cc2)n1/C=C/[C@@H](O)C[C@@H](O)CC(=O)O has an IC50 of 9 nM. With Cc1cc(F)ccc1-c1c(-c2ccc(F)cc2)nc(C(C)C)n1/C=C/[C@@H](O)C[C@@H](O)CC(=O)O the IC50 was 8.4 nM. In the case of CC(C)n1c(/C=C/C(O)CC(O)CC(=O)O)c(-c2ccc(F)cc2)c2ccccc21 (stereo not drawn) [FLUVASTATIN], the IC50 is reported as 28 nM. For CC(C)c1cc(-c2ccc(F)cc2)c(-c2ccccc2)n1/C=C/[C@@H](O)C[C@@H](O)CC(=O)O, the IC50 was 7.6 nM. With CC(C)c1cc(-c2ccccc2)c(-c2ccc(F)cc2)n1/C=C/[C@@H](O)C[C@@H](O)CC(=O)O the IC50 was 8.7 nM. CC(C)c1nc(-c2ccc(F)cc2)c(-c2ccc(F)cc2)n1/C=C/[C@H](O)C[C@@H](O)CC(=O)O was tested, and the IC50 was 5.7 nM. For CC(C)c1nc(-c2cccnc2)c(-c2ccc(F)cc2)n1/C=C/[C@@H](O)C[C@@H](O)CC(=O)O, the IC50 was 9 nM. CC(C)c1cc(-c2ccc(F)cc2)c(-c2ccc(F)cc2)n1/C=C/[C@@H](O)C[C@@H](O)CC(=O)O (stereo in doubt; 19) showed an IC50 of 8.7 nM. Compound CC(C)c1nc(N(C)S(C)(=O)=O)nc(-c2ccc(F)cc2)c1/C=C/[C@@H](O)C[C@@H](O)CC(=O)O [ROSUVASTATIN] has an IC50 of 5 nM. With CC(C)c1cc(-c2ccc(F)cc2)c(-c2cccc(Br)c2)n1/C=C/[C@@H](O)C[C@@H](O)CC(=O)O the IC50 was 7.16 nM. CC(C)c1nc(-c2ccc(F)cc2)c(-c2cccc(Cl)c2)n1/C=C/[C@@H](O)C[C@@H](O)CC(=O)O showed an IC50 of 8.1 nM. With CC(C)c1cc(-c2cccc(Cl)c2)c(-c2ccc(F)cc2)n1/C=C/[C@@H](O)C[C@@H](O)CC(=O)O the IC50 was 8.7 nM. With CCc1cc(-c2c(-c3ccc(F)cc3)nc(C(C)C)n2/C=C/[C@@H](O)C[C@@H](O)CC(=O)O)cc(CC)c1F the IC50 was 7 nM. Compound CC(C)c1cc(-c2ccc(F)cc2)c(-c2ccc(F)cc2)n1/C=C/[C@@H](O)C[C@@H](O)CC(=O)O (stereo in doubt; 29) has an IC50 of 6.98 nM. Work on CN(C)c1nc(-c2ccc(F)cc2)c(-c2ccc(F)cc2)n1/C=C/[C@@H](O)C[C@@H](O)CC(=O)O yielded an IC50 of 8.04 nM. Work on CC(C)c1cc(-c2ccccn2)c(-c2ccc(F)cc2)n1/C=C/[C@@H](O)C[C@@H](O)CC(=O)O yielded an IC50 of 8.7 nM. CC(C)c1nc(-c2cccc(S(C)(=O)=O)c2)c(-c2ccc(F)cc2)n1/C=C/[C@@H](O)C[C@@H](O)CC(=O)O was tested, and the IC50 was 8.7 nM. Work on Cc1cc(-c2c(-c3ccc(F)cc3)nc(C(C)C)n2/C=C/[C@@H](O)C[C@@H](O)CC(=O)O)cc(C)c1F yielded an IC50 of 7.52 nM.
